Assay results published in ChEMBL document CHEMBL1201862, “PubChem BioAssay data set” (2004).
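Protocol summary: plate cells (96-well), add compound at 5 concentrations, incubate 48 h, interpolate endpoints linearly. Abbreviation: GI50, concentration required for 50% inhibition of growth.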 The source made the active and inactive calls. No stated cut-off is given here; in the data, active = GI50 up to about 1.1 µM and inactive = higher.

Tests used:
Test in all cases: NCI-60 cell line screen, 48 h
UACC-62 = system: UACC-62
OVCAR-8 = system: OVCAR-8
HCT-15 = system: HCT-15
SF-268 = system: SF-268
KM12 = system: KM12
HL-60 = system: HL-60
SK-MEL-28 = system: SK-MEL-28
NCI-H23 = system: NCI-H23
U-251 = system: U-251
HCC 2998 = system: HCC 2998
SR = system: SR
K562 = system: K562
NCI-H460 = system: NCI-H460
MDA-MB-435 = system: MDA-MB-435
UO-31 = system: UO-31
NCI/ADR-RES = system: NCI/ADR-RES
BT-549 = system: BT-549
SNB-75 = system: SNB-75
CAKI-1 = system: CAKI-1
RPMI-8226 = system: RPMI-8226
A498 = system: A498
SNB-19 = system: SNB-19
HOP-92 = system: HOP-92
OVCAR-4 = system: OVCAR-4
MDA-MB-231 = system: MDA-MB-231
MOLT-4 = system: MOLT-4
SN12C = system: SN12C
TK-10 = system: TK-10
CCRF-CEM = system: CCRF-CEM
SW-620 = system: SW-620
UACC-257 = system: UACC-257
ACHN = system: ACHN
MDA-N = system: MDA-N
NCI-H226 = system: NCI-H226
Hs-578T = system: Hs-578T
RXF 393 = system: RXF 393
EKVX = system: EKVX
SK-MEL-2 = system: SK-MEL-2
786-0 = system: 786-0
SK-MEL-5 = system: SK-MEL-5
Malme-3M = system: Malme-3M
IGROV-1 = system: IGROV-1
HT-29 = system: HT-29
PC-3 = system: PC-3
M14 = system: M14
HCT-116 = system: HCT-116
A549 = system: A549
COLO 205 = system: COLO 205
MCF7 = system: MCF7
HOP-62 = system: HOP-62
LOX IMVI = system: LOX IMVI
DU-145 = system: DU-145
SF-295 = system: SF-295
OVCAR-5 = system: OVCAR-5
OVCAR-3 = system: OVCAR-3
T47D = system: T47D

Question: Which results are given for CC1(C)/C(=N\O)C2(C#N)CCC1C2 (centres undefined)?
Answer: GI50 (UACC-62): > 100 µM (inactive); GI50 (OVCAR-8): > 100 µM (inactive); GI50 (HCT-15): > 100 µM; GI50 (SF-268): > 100 µM (inactive); GI50 (KM12): > 100 µM (inactive); GI50 (HL-60): > 100 µM (inactive); GI50 (SK-MEL-28): > 100 µM (inactive); GI50 (NCI-H23): > 100 µM (inactive); GI50 (U-251): > 100 µM (inactive); GI50 (HCC 2998): > 100 µM (inactive); GI50 (SR): > 100 µM (inactive); GI50 (K562): > 100 µM (inactive); GI50 (NCI-H460): > 100 µM (inactive); GI50 (MDA-MB-435): > 100 µM (inactive); GI50 (UO-31): > 100 µM (inactive); GI50 (NCI/ADR-RES): > 100 µM (inactive); GI50 (BT-549): > 100 µM (inactive); GI50 (SNB-75): > 100 µM (inactive); GI50 (CAKI-1): > 100 µM (inactive); GI50 (RPMI-8226): > 100 µM (inactive); GI50 (A498): > 100 µM (inactive); GI50 (SNB-19): > 100 µM (inactive); GI50 (HOP-92): > 100 µM (inactive); GI50 (OVCAR-4): > 100 µM (inactive); GI50 (MDA-MB-231): > 100 µM (inactive); GI50 (MOLT-4): > 100 µM (inactive); GI50 (SN12C): > 100 µM (inactive); GI50 (TK-10): > 100 µM (inactive); GI50 (CCRF-CEM): > 100 µM (inactive); GI50 (SW-620): > 100 µM (inactive); GI50 (UACC-257): > 100 µM (inactive); GI50 (ACHN): > 100 µM (inactive); GI50 (MDA-N): > 100 µM (inactive); GI50 (NCI-H226): > 100 µM (inactive)

Question: How did the GI50 (UACC-62) turn out when CCOC(=O)c1ccc(/N=C2\S/C(=C\C(=S)Nc3ccccc3)N(c3ccccc3)\C2=N/c2ccc(C(=O)OCC)cc2)cc1 was run?
Answer: > 100 µM (inactive)

Question: And the GI50 (OVCAR-8)?
Answer: > 100 µM (inactive)

Question: What about the GI50 (HCT-15) of the same molecule?
Answer: > 100 µM

Question: What about the GI50 (KM12) of the same molecule?
Answer: > 100 µM (inactive)

Question: And the GI50 (Hs-578T)?
Answer: 62.4 µM (inactive)

Question: And the GI50 (HL-60)?
Answer: > 100 µM (inactive)

Question: And the GI50 (SK-MEL-28)?
Answer: 95.5 µM (inactive)

Question: And the GI50 (RXF 393)?
Answer: 81.5 µM (inactive)

Question: And the GI50 (NCI-H23)?
Answer: > 100 µM (inactive)

Question: And the GI50 (EKVX)?
Answer: > 100 µM (inactive)

Question: And the GI50 (HCC 2998)?
Answer: > 100 µM (inactive)

Question: And the GI50 (SR)?
Answer: > 100 µM (inactive)

Question: And the GI50 (SK-MEL-2)?
Answer: > 100 µM (inactive)

Question: And the GI50 (K562)?
Answer: > 100 µM (inactive)

Question: What about the GI50 (786-0) of the same molecule?
Answer: 82 µM (inactive)

Question: What about the GI50 (SK-MEL-5) of the same molecule?
Answer: 40.7 µM (inactive)

Question: What about the GI50 (Malme-3M) of the same molecule?
Answer: 21.6 µM (inactive)

Question: And the GI50 (IGROV-1)?
Answer: > 100 µM (inactive)

Question: And the GI50 (UO-31)?
Answer: > 100 µM (inactive)

Question: And the GI50 (BT-549)?
Answer: 62.7 µM (inactive)

Question: And the GI50 (SNB-75)?
Answer: 34.5 µM (inactive)

Question: What about the GI50 (HT-29) of the same molecule?
Answer: > 100 µM (inactive)

Question: And the GI50 (PC-3)?
Answer: > 100 µM (inactive)

Question: And the GI50 (M14)?
Answer: 34.6 µM (inactive)

Question: What about the GI50 (RPMI-8226) of the same molecule?
Answer: > 100 µM (inactive)

Question: And the GI50 (HCT-116)?
Answer: 27.2 µM (inactive)

Question: What about the GI50 (A549) of the same molecule?
Answer: > 100 µM (inactive)

Question: What about the GI50 (SNB-19) of the same molecule?
Answer: > 100 µM (inactive)

Question: What about the GI50 (HOP-92) of the same molecule?
Answer: 22.8 µM (inactive)

Question: What about the GI50 (COLO 205) of the same molecule?
Answer: > 100 µM (inactive)

Question: And the GI50 (MDA-MB-231)?
Answer: > 100 µM (inactive)

Question: And the GI50 (MOLT-4)?
Answer: > 100 µM (inactive)

Question: And the GI50 (SN12C)?
Answer: > 100 µM (inactive)

Question: What about the GI50 (TK-10) of the same molecule?
Answer: > 100 µM (inactive)

Question: And the GI50 (CCRF-CEM)?
Answer: > 100 µM (inactive)

Question: What about the GI50 (SW-620) of the same molecule?
Answer: > 100 µM (inactive)

Question: What about the GI50 (MCF7) of the same molecule?
Answer: > 100 µM (inactive)

Question: And the GI50 (HOP-62)?
Answer: > 100 µM (inactive)

Question: And the GI50 (UACC-257)?
Answer: 94.2 µM (inactive)

Question: What about the GI50 (NCI-H226) of the same molecule?
Answer: > 100 µM (inactive)

Question: Which results are given for CCn1ncc(N=O)c1N?
Answer: GI50 (UACC-62): > 100 µM (inactive); GI50 (OVCAR-8): > 100 µM (inactive); GI50 (HCT-15): > 100 µM; GI50 (LOX IMVI): > 100 µM (inactive); GI50 (DU-145): > 100 µM (inactive); GI50 (SK-MEL-28): > 100 µM (inactive); GI50 (EKVX): > 100 µM (inactive); GI50 (HCC 2998): 56.2 µM (inactive); GI50 (SR): > 100 µM (inactive); GI50 (786-0): > 100 µM (inactive); GI50 (NCI-H460): > 100 µM (inactive); GI50 (SF-295): > 100 µM (inactive); GI50 (SK-MEL-5): > 100 µM (inactive); GI50 (MDA-MB-435): > 100 µM (inactive); GI50 (UO-31): > 100 µM (inactive); GI50 (NCI/ADR-RES): > 100 µM (inactive); GI50 (HT-29): > 100 µM (inactive); GI50 (PC-3): > 100 µM (inactive); GI50 (CAKI-1): > 100 µM (inactive); GI50 (OVCAR-5): > 100 µM (inactive); GI50 (OVCAR-3): > 100 µM (inactive); GI50 (MOLT-4): > 100 µM (inactive); GI50 (SN12C): > 100 µM (inactive); GI50 (TK-10): > 100 µM (inactive); GI50 (SW-620): > 100 µM (inactive); GI50 (MCF7): > 100 µM (inactive); GI50 (T47D): > 100 µM (inactive); GI50 (HOP-62): > 100 µM (inactive); GI50 (UACC-257): > 100 µM (inactive); GI50 (ACHN): > 100 µM (inactive)
